The record followed here is patent US6346390B1, “Receptor derived peptides involved in modulation of response to ligand binding” (Receptron, Inc., priority 1996, dated 2002).

Experiment [1] has as its system rat adipose cells. Nature of the experiment: Glucose transport in adipose cells. The experiment is classed as cell-based. The protocol: The biological activity of the peptides were measured by their effect on glucose uptake in rat adipose cells as described (Stagsted et al. (1991) J. Biol. Chem. 266:12844-12847). Briefly, rat adipose cells were obtained from epididymal fat pads and suspended in Krebs-Ringer HEPES buffer (KRH) with 5% bovine serum albumin at a lipocrit of 10% (final). […] Most of the peptides were not tested at higher concentrations than 30 μM.

The target of experiment [2] is T1, human insulin receptor (Homo sapiens, UniProt P06213).
T1 construct: expressed in transfected cells; host or cells: HeLa cells, electroporated; pCR3 expression vector (Invitrogen, catalog no. K3000-01)
Nature of the experiment: Insulin receptor internalization in transfected HeLa cells. In kind it is cell-based. The note with it: for effect on insulin receptor internalization (in words): transfected cells, 10 μM peptide. The protocol:
Insulin Receptor modification and expression. […] K3000-01) was transfected by electroporation into HeLa cells. Methods of electroporation are described in Boggs et al. (1986) Ex. Hematol. 149:988-994. In the transfected cells the receptors show insulin dependent internalization.
Receptor internalization was performed essentially as described in Stagsted et al. (1990) Cell 62:297-307. […] The cells were then diluted with 50 μl of KRHB (pH7.2) (no acid wash) or 50 μl of KRHB (pH 2.0) (acid wash) and incubated on ice for 5 min. The cells were finally harvested by centrifugation on top of silicone oil, and both free and cell-associated radioactivity was measured.

Regarding “GNEQSFRVDLRTLLRYAGGGNEQSFRVDLRTLLRYA [DS-A85]”, the “enhancement of glucose uptake” value in experiment [1] (insulin + 10 μM peptide (insulin alone 14±3 fold)) was found to be 22±4 fold. Turning to “KTDSQILKELEESSFRKTFEDYLH [pepIR, human insulin receptor derived peptide]”, in experiment [2], the “effect on insulin receptor internalization (in words)” value was “inhibits receptor internalization to the same extent as DS-A85”. Besides, the “effect on glucose uptake (in words)” value in experiment [1] (at maximal insulin stimulation) is “did not significantly affect glucose uptake”. Take TWLGRQGPEGPSSIPPGTLTTLW [GLUT4pep]: in experiment [2] (in the presence of 10 μM peptide, time not stated, in the absence of peptide 64±7), the “per cent internalized receptor” value was 6±9 per cent. Besides, in experiment [2], the “effect on insulin receptor internalization (in words)” value was “does not affect insulin receptor internalization”. On to insulin, for which the “enhancement of glucose uptake” value in experiment [1] (10 nM insulin alone) stood at 12±4 fold; in experiment [1] (10 μM insulin alone), 14±3 fold.
